Broadly, the EC50 is the concentration giving half of the maximal effect. Higher therefore signals lower potency in that assay. In general, IC50 refers to the midpoint of a concentration-inhibition curve.

Read-outs that look alike come from different tables or passages of the source.

One assay concerns SARS-CoV-2. Briefly: microbe, parasite or virus in culture. It counts as cell-based. The following applies: Severe acute respiratory syndrome coronavirus 2, VeroE6/TMPRSS2, 72 h, 50% SARS-CoV-2 infected cell death inhibitory concentration, VeroE6/TMPRSS2 cells, 3 days culture.
Another assay concerns the target SARS-CoV-2 3CL protease (Severe acute respiratory syndrome coronavirus 2, UniProt P0DTD1). The experiment in a line: biochemical. The following applies: 50% SARS-CoV-2 3CL protease inhibitory concentration, read-out: IC50.

Consider `O=c1[nH]cc(Cl)cc1Cn1c(=O)nc(Nc2cc3cn([C@H]4CCC[C@@H]4O)nc3cc2Cl)n(Cc2cc(F)c(F)c(F)c2)c1=O` [Compound I-0251], for which the EC50 in the assay on SARS-CoV-2 (class symbols) lay within 1000 to 10000 nM. Moreover, the half-inhibitory concentration (IC50) at SARS-CoV-2 3CL protease (given as class symbols) was below 100 nM.
With `Cc1cncc(-n2c(=O)nc(Nc3cc4cn(CCN5CCOCC5)nc4cc3Cl)n(Cc3cc(F)c(F)cc3F)c2=O)c1` [II-0007], the EC50 in the assay with SARS-CoV-2 (class symbols) was below 1000 nM. For the same molecule, the IC50 on SARS-CoV-2 3CL protease (given as class symbols) is below 100 nM.
Consider `Cc1cncc(-n2c(=O)nc(Nc3ccc4nn(C)nc4c3)n(Cc3cc(F)c(F)c(F)c3)c2=O)c1` [II-0221], for which, in the assay with SARS-CoV-2 (class symbols), the EC50 lay in the range of 1000 to 10000 nM. The IC50 at SARS-CoV-2 3CL protease (given as class symbols) is below 100 nM.
For `CNc1nc2cc(F)c(Nc3nc(=O)n(-c4cncc(C)c4)c(=O)n3Cc3cc(Cl)c(F)cc3F)cc2s1` [II-0385] the same measures were below 1000 nM and below 100 nM.
Regarding `O=c1[nH]cccc1Cn1c(=O)nc(Nc2cc3cn(CCO)nc3cc2Cl)n(Cc2cc(F)c(F)c(F)c2)c1=O` [Compound I-0281], the EC50 in the assay on SARS-CoV-2 (CellTiter-Glo 2.0) amounted to 4180 nM. The IC50 on SARS-CoV-2 3CL protease (RapidFire MS) was determined as 3.8 nM.
As for `Cn1cnc(Cn2c(=O)nc(Nc3cc4sc(NCC5CC5)nc4cc3Cl)n(Cc3cc(F)c(F)cc3F)c2=O)n1` [II-0082], in the assay on SARS-CoV-2 (class symbols), the EC50 lay within 1000 to 10000 nM. The half-inhibitory concentration (IC50) on SARS-CoV-2 3CL protease (given as class symbols) is below 100 nM.
The molecule `Cc1cncc(-n2c(=O)nc(Nc3cc4cn(C)nc4cc3Cl)n(Cc3ccc(F)c(C#N)c3)c2=O)c1` [Compound I-0383] had an EC50 in the assay with SARS-CoV-2 (CellTiter-Glo 2.0) of 96 nM. In addition, at SARS-CoV-2 3CL protease (RapidFire MS), the IC50 turned out to be 3.4 nM.
`Cc1cncc(-n2c(=O)nc(Nc3ccc4nn(CC(F)F)cc4c3)n(Cc3cc(F)c(F)c(C#N)c3)c2=O)c1` [II-0055]: in the assay on SARS-CoV-2 (CellTiter-Glo 2.0), the EC50 was 180 nM. Moreover, the IC50 on SARS-CoV-2 3CL protease (RapidFire MS) was 4.5 nM.
Molecule `COc1ccc(Nc2nc(=O)n(Cc3ccc[nH]c3=O)c(=O)n2Cc2cc(Cl)c(F)cc2F)cc1` [Compound I-0226] had a 50% effective concentration (EC50) in the assay on SARS-CoV-2 (class symbols) of 1000 to 10000 nM. For the same molecule, at SARS-CoV-2 3CL protease (given as class symbols), the half-inhibitory concentration (IC50) was below 100 nM.
In the assay with SARS-CoV-2 (class symbols), `O=c1[nH]cccc1Cn1c(=O)nc(NC2CCOCC2)n(Cc2cc(F)c(F)c(F)c2)c1=O` [Compound I-0132] gave an EC50 below 1000 nM. Moreover, the IC50 was 1000 to 10000 nM at SARS-CoV-2 3CL protease (given as class symbols) and 2300 nM at SARS-CoV-2 3CL protease (RapidFire MS).
Regarding `Cc1nc2cc(Cl)c(Nc3nc(=O)n(Cc4ncn(C)n4)c(=O)n3Cc3cc(F)c(F)cc3F)cc2o1` [II-0326], the EC50 with SARS-CoV-2 (class symbols) lay within 1000 to 10000 nM. Further, on SARS-CoV-2 3CL protease (given as class symbols), the concentration for half-maximal inhibition (IC50) was below 100 nM.
For `Cn1cnc(Cn2c(=O)nc(Nc3cc4cn(C)nc4cc3F)n(Cc3cc(F)c(F)c(Cl)c3)c2=O)n1` [II-0060] the same measures were 1000 to 10000 nM and below 100 nM.
As to `COc1ccc(Nc2nc(=O)n(Cc3cc(-c4ccccc4)c[nH]c3=O)c(=O)n2Cc2cc(F)c(F)c(F)c2)cc1` [Compound I-0318], the figures for the EC50 with SARS-CoV-2 (CellTiter-Glo 2.0) and in the assay on SARS-CoV-2 (class symbols) were 1360 nM and 1000 to 10000 nM, respectively. Moreover, the IC50 at SARS-CoV-2 3CL protease (given as class symbols) is 100 to 1000 nM; on SARS-CoV-2 3CL protease (RapidFire MS), 110 nM.
As for `COCCCn1cc2cc(Nc3nc(=O)n(Cc4ccc[nH]c4=O)c(=O)n3Cc3cc(F)c(F)c(F)c3)c(Cl)cc2n1` [Compound I-0248], in the assay on SARS-CoV-2 (class symbols), the EC50 fell in the range of 1000 to 10000 nM. Also, on SARS-CoV-2 3CL protease (given as class symbols), the IC50 is below 100 nM.
In the assay on SARS-CoV-2 (CellTiter-Glo 2.0), `N#Cc1cc(Cn2c(Nc3ccc4c(c3)CCO4)nc(=O)n(-c3cncc4ccccc34)c2=O)ccc1F` [Compound I-0351] registered a concentration giving a half-maximal response (EC50) of 74.7 nM. The IC50 on SARS-CoV-2 3CL protease (RapidFire MS) came out at 4.3 nM.
On to `N#Cc1cc(Cn2c(Nc3cc4c(cc3Cl)OCC4)nc(=O)n(Cc3ccc[nH]c3=O)c2=O)ccc1F` [Compound I-0013], for which, in the assay with SARS-CoV-2 (class symbols), the EC50 lay in the range of 1000 to 10000 nM. Also, the 50% inhibitory concentration (IC50) on SARS-CoV-2 3CL protease (given as class symbols) was below 100 nM.
For `COc1ccc(Nc2nc(=O)n(Cc3ccc[nH]c3=O)c(=O)n2Cc2cc(F)c(F)c(F)c2)c(Br)c1` [Compound I-0166] the same measures were below 1000 nM and below 100 nM.
For `COc1ccc(Nc2nc(=O)n(Cc3ccc[nH]c3=O)c(=O)n2Cc2ccc(F)c(C#N)c2)c(Cl)c1` [Compound I-0331] the same measures were 1000 to 10000 nM and below 100 nM.
In the assay on SARS-CoV-2 (class symbols), `COc1ccc(Nc2nc(=O)n(Cc3ccc[nH]c3=O)c(=O)n2Cc2cc(Cl)c(F)c(Cl)c2)cc1` [Compound I-0227] yielded an EC50 of 1000 to 10000 nM. The IC50 on SARS-CoV-2 3CL protease (given as class symbols) is below 100 nM.
`Cc1cnc(Cn2c(=O)nc(Nc3cc4cn(C)nc4cc3Cl)n(Cc3cc(F)c(F)cc3F)c2=O)nc1` [II-0425] yielded a 50% effective concentration (EC50) in the assay on SARS-CoV-2 (CellTiter-Glo 2.0) of 5850 nM. Besides, the IC50 on SARS-CoV-2 3CL protease (RapidFire MS) was determined as 260 nM.
Consider `Cc1cncc(-n2c(=O)nc(Nc3cc4cn(C)nc4cc3F)n(Cc3cc(C#N)ccc3C)c2=O)c1` [II-0115], for which the EC50 in the assay on SARS-CoV-2 (class symbols) was below 1000 nM. Moreover, at SARS-CoV-2 3CL protease (given as class symbols), the IC50 was below 100 nM.
`CNc1nc2cc(Cl)c(Nc3nc(=O)n(Cc4ccc[nH]c4=O)c(=O)n3Cc3cc(F)c(F)c(F)c3)cc2s1` [Compound I-0467] had an EC50 in the assay on SARS-CoV-2 (class symbols) of 1000 to 10000 nM. Also, the IC50 on SARS-CoV-2 3CL protease (given as class symbols) is below 100 nM.
In turn, `COC(=O)Nc1nc2cc(Cl)c(Nc3nc(=O)n(Cc4ncn(C)n4)c(=O)n3Cc3cc(Cl)c(F)cn3)cc2s1` [II-0080] yielded a half-maximal effective concentration (EC50) in the assay on SARS-CoV-2 (class symbols) of 1000 to 10000 nM. For the same molecule, at SARS-CoV-2 3CL protease (given as class symbols), the IC50 is below 100 nM.
As for `Cc1cncc(-n2c(=O)nc(Nc3cc4cn(CC(F)F)nc4cc3Cl)n(Cc3cc(F)c(F)c(C#N)c3)c2=O)c1` [II-0568], the EC50 in the assay on SARS-CoV-2 (CellTiter-Glo 2.0) was 132 nM. The concentration for half-maximal inhibition (IC50) on SARS-CoV-2 3CL protease (RapidFire MS) came to 2.1 nM.
Consider `CNc1nc2ccc(Nc3nc(=O)n(-c4cncc(C)c4)c(=O)n3Cc3cc(F)c(F)c(F)c3)cc2s1` [II-0323], for which the half-maximal effective concentration (EC50) with SARS-CoV-2 (class symbols) was below 1000 nM. Further, the IC50 on SARS-CoV-2 3CL protease (given as class symbols) was below 100 nM.
In turn, `COc1ccc(Nc2nc(=O)n(CC3CCNC3=O)c(=O)n2Cc2cc(F)c(F)c(F)c2)cc1` (racemic) [Compound I-0301] returned an EC50 with SARS-CoV-2 (class symbols) below 1000 nM. In addition, the IC50 at SARS-CoV-2 3CL protease (given as class symbols) is 1000 to 10000 nM; on SARS-CoV-2 3CL protease (RapidFire MS), 3800 nM.
For `Cn1cnc(Cn2c(=O)nc(Nc3cc4sc(NCC(F)F)nc4cc3Cl)n(Cc3cc(Cl)c(F)cc3F)c2=O)n1` [II-0262], the EC50 in the assay on SARS-CoV-2 (class symbols) fell in the range of 1000 to 10000 nM. In addition, on SARS-CoV-2 3CL protease (given as class symbols), the half-maximal inhibitory concentration (IC50) is below 100 nM.
For the molecule `Cn1cnc(Cn2c(=O)nc(Nc3cc4cn(C)nc4cc3Cl)n(Cc3cc(Cl)c(F)cc3Cl)c2=O)n1` [II-0363], the EC50 with SARS-CoV-2 (class symbols) was below 1000 nM. Moreover, the IC50 at SARS-CoV-2 3CL protease (given as class symbols) was below 100 nM.
For `Cn1cnc(Cn2c(=O)nc(Nc3cc4sc(NCC(F)F)nc4cc3Cl)n(Cc3cc(F)c(F)c(Cl)c3)c2=O)n1` [II-0243] the same measures were 1000 to 10000 nM and below 100 nM.
Consider `COc1cc(Cl)c(Nc2nc(=O)n(Cc3ccc[nH]c3=O)c(=O)n2Cc2cc(F)c(F)c(F)c2)c(Cl)c1` [Compound I-0437], for which the EC50 in the assay on SARS-CoV-2 (class symbols) was 1000 to 10000 nM. Besides, at SARS-CoV-2 3CL protease (given as class symbols), the IC50 is below 100 nM.
As for `CC(=O)Nc1nc2cc(Cl)c(Nc3nc(=O)n(Cc4ccc[nH]c4=O)c(=O)n3Cc3cc(F)c(F)c(F)c3)cc2s1` [Compound I-0465], the half-maximal effective concentration (EC50) with SARS-CoV-2 (CellTiter-Glo 2.0) was 3270 nM; in the assay on SARS-CoV-2 (class symbols), 1000 to 10000 nM. The IC50 is below 100 nM on SARS-CoV-2 3CL protease (given as class symbols) and 4.2 nM at SARS-CoV-2 3CL protease (RapidFire MS).
`Cc1nc2cc(Cl)c(Nc3nc(=O)n(Cc4ccc[nH]c4=O)c(=O)n3Cc3cc(F)c(F)c(F)c3)cc2s1` [Compound I-0370] registered an EC50 in the assay on SARS-CoV-2 (class symbols) of 1000 to 10000 nM. Also, the IC50 at SARS-CoV-2 3CL protease (given as class symbols) is below 100 nM.
Regarding `Cn1cnc(Cn2c(=O)nc(Nc3cc4cn(CC(F)F)nc4cc3Cl)n(Cc3cc(F)c(F)c(F)c3)c2=O)n1` [Compound I-0433], the values for the EC50 in the assay with SARS-CoV-2 (CellTiter-Glo 2.0) and in the assay on SARS-CoV-2 (class symbols) were 720 nM and below 1000 nM, respectively. For the same molecule, the results for the IC50 on SARS-CoV-2 3CL protease (given as class symbols) and on SARS-CoV-2 3CL protease (RapidFire MS) were below 100 nM and 10 nM, respectively.
Take `COc1ccc(Nc2nc(=O)n(Cc3c[nH]c(=O)[nH]c3=O)c(=O)n2Cc2cc(F)c(F)c(F)c2)c(Cl)c1` [Compound I-0404]: the concentration for a half-maximal effect (EC50) with SARS-CoV-2 (class symbols) is 1000 to 10000 nM. Besides, at SARS-CoV-2 3CL protease (given as class symbols), the IC50 was below 100 nM.
For `O=c1[nH]cccc1Cn1c(=O)nc(Nc2cc3c(cc2Cl)OCCC3)n(Cc2cc(F)c(F)c(F)c2)c1=O` [Compound I-0372] the same measures were below 1000 nM and below 100 nM.

The values are drawn from patent US12559474B2, “Triazine derivatives having virus replication inhibitory activity and pharmaceutical composition comprising the same” (priority 2021, dated 2026).
